The source of these data is ChEMBL document CHEMBL1149317, “Synthesis and in vitro antifolate activity of rotationally restricted aminopterin and methotrexate analogues” (J Med Chem, 2004).

pIC50, pKi: −log10 of the molar value.

Test [1] has as its target T1, Reduced folate transporter (Homo sapiens, UniProt P41440).
T1 sequence (P41440 whole entry): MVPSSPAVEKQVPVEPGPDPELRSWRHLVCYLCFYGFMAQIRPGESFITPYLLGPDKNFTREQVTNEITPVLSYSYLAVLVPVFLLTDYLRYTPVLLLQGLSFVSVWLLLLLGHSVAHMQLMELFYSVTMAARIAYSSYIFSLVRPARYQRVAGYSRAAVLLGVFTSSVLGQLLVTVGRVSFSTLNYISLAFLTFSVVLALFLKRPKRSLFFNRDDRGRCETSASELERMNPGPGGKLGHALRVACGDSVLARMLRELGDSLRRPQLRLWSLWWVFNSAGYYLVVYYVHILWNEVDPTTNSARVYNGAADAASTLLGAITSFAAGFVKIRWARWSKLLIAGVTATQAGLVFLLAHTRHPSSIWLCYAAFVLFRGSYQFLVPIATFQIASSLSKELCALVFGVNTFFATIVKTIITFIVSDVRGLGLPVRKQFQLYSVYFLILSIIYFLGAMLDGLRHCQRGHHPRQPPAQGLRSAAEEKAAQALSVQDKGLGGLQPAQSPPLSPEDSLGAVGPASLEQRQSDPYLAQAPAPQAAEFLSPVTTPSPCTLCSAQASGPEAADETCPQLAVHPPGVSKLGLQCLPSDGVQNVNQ
Nature of the test: Inhibition of RFC-mediated [3H]MTX influx into human CCRF-CEM cells. The class given is cell-based.

Another test relates to CCRF-CEM. Kind of test: Growth inhibition of human CCRF-CEM cells after 72 hrs. The class given is functional, cell-based.
For a further test, the target named is T2, Dihydrofolate reductase (Homo sapiens, UniProt P00374).
T2 sequence (P00374 whole entry): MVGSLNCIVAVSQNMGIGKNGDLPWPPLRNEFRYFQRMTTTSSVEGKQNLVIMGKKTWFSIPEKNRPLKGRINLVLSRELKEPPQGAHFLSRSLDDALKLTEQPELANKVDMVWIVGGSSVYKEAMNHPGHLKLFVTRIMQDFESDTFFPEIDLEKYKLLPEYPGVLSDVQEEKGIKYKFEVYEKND
Nature of the test: Inhibition of human DHFR.

As usually defined, the pKi is the negative decadic logarithm of the Ki, by convention in mol/L. Read a high pKi as a small Ki. Broadly, the pIC50 is the IC50 on a negative log10 scale, so that one unit is a factor of ten. Read a low pIC50 as a large IC50. On to `Nc1nc(N)c2nc(CNc3ccc4c(c3)CN([C@@H](CCC(=O)O)C(=O)O)C4=O)cnc2n1`, for which the pKi in test [1] is 6.55; on Dihydrofolate reductase it was 10.47. The negative logarithm of the IC50 (pIC50) with CCRF-CEM was 8.29.

On to `Nc1nc(N)c2nc(CNc3ccc4c(c3)CN(C(CCC(=O)O)C(=O)O)C4=O)cnc2n1` (racemic), for which the pKi in test [1] is 6.28; on Dihydrofolate reductase, 10.11. In the test with CCRF-CEM, the pIC50 is 8.08.

In the case of `CN(Cc1cnc2nc(N)nc(N)c2n1)c1ccc2c(c1)CN([C@@H](CCC(=O)O)C(=O)O)C2=O`, the pKi in test [1] was 5.96; on Dihydrofolate reductase, 8.68. In the test on CCRF-CEM, this compound gave a pIC50 of 6.85.
